Measurements published in PubChem BioAssay (NCI).
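1) Cells in 96-well plates. 2) Compound, 48 h, 5 concentrations. 3) Linear interpolation between surrounding doses. 4) Unreached endpoint = highest concentration. At the TGI there is no net growth.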

system: OVCAR-8 ovarian; assay: DTP human tumour cell line panel, 48 h

Cc1ccc(S(=O)(=O)N2CCSCCSCCSCCN(S(=O)(=O)c3ccc(C)cc3)CC2)cc1 and Cc1cc(NS(=O)(=O)c2ccc(N=[N+]([O-])c3ccc(S(=O)(=O)Nc4cc(C)on4)cc3)cc2)no1 cannot be ordered by TGI: over 100 µM for the first, over 100 µM for the second.

C1CCCN(NC2=NCCO2)CC1 and O=C1NCN(c2ccccc2)C12CCN(CC1COc3ccccc3O1)CC2 (configuration not stated) cannot be ordered by TGI: over 100 µM for the first, over 100 µM for the second.

CCOc1ccc(NC(=O)C(=O)Nn2c(N)nnc2N)cc1 and NC(=O)[N+](=CC(=S)Nc1ccccc1Cl)C(N)=O cannot be ordered by TGI: over 100 µM for the first, over 100 µM for the second.

O=C1OC([C@H](O)c2cccnc2)c2ccccc21 (some centres not stated) and CC(=O)N1C(Nc2nccs2)CCN1c1ccccc1 (configuration not stated) cannot be ordered by TGI: over 10 µM for the first, over 10 µM for the second.

First: CC(C)(C)O/N=C/c1cc(NC(=S)c2ccsc2)ccc1Cl
Second: CC(=O)/C(=C\I)c1ccccc1
The TGI of the first is 8.6-fold higher: 29.7 µM for the first, 3.45 µM for the second.

C=CCN1CCC(c2cc(C(=O)OCC)[nH]c2-c2cc(C)no2)C1=O (configuration not stated) and Cc1cn(C2CC(N=[N+]=[N-])C(COP(=O)(O)OCC3OC(n4cc(F)c(=O)[nH]c4=O)CC3O)O2)c(=O)[nH]c1=O (configuration not stated) cannot be ordered by TGI: over 100 µM for the first, over 100 µM for the second.

Cc1ccc(S(=O)(=O)N/N=C2/CCC3(O)CC2(C)CCC2[C@H]3CC2(C)C)cc1 (some centres not stated) and CCCCCCCCCCCCOCC1(COCCCCCCCCCCCC)COC(c2ccc(N)cc2)OC1 cannot be ordered by TGI: over 100 µM for the first, over 100 µM for the second.

Molecule CC(C)OP(=O)(OC(C)C)C(C)(C)O has a TGI of over 100 µM.

system: NCI/ADR-RES ovarian; assay: DTP human tumour cell line panel, 48 h

CCCCCCCCCCCCCCCCNC(=O)/C(=C\c1ccc(Cl)c(Cl)c1)NC(=O)c1ccccc1 and CCCCCCCCCCCCOCC1(COCCCCCCCCCCCC)COC(c2ccc(N)cc2)OC1 cannot be ordered by TGI: over 100 µM for the first, over 100 µM for the second.

First: O=C(Nc1ccccc1)OCCN=C1c2ccccc2CCc2ccccc21
Second: O=C1NCN(c2ccccc2)C12CCN(CC1COc3ccccc3O1)CC2 (configuration not stated)
The TGI of the first is lower: 72.4 µM for the first, over 100 µM for the second.

First: COc1cc2cc(C(=O)N3CC(CCl)c4ccc([N+](C)(C)Cc5ccccc5[N+](=O)[O-])cc43)[nH]c2c(OC)c1OC (configuration not stated)
Second: COc1cc([C@@H]2c3cc4c(cc3[C@@H](Nc3ccc(Cl)cc3C(=O)c3ccccc3)[C@H]3COC(=O)[C@H]23)OCO4)cc(OC)c1OC
The TGI of the first is lower: 34.2 µM for the first, over 100 µM for the second.

CC(C)[C@H]1NC(=O)[C@H]2N=C(S[C@H]2C)[C@@H]2CCCN2C(=O)[C@H](Cc2ccccc2)NC(=O)[C@@H]2CSC(=N2)[C@@H](Cc2ccccc2)NC(=O)[C@@H]2CSC1=N2 and Cc1nn(C(=O)c2ccncc2)c2c1C(c1ccccc1[N+](=O)[O-])SC(N)=N2 (configuration not stated) cannot be ordered by TGI: over 50 µM for the first, over 10 µM for the second.

COC(=O)/C=C/[C@@H]1[C@H](C)N1S(=O)(=O)c1ccc(C)cc1 (some centres not stated) and Cc1ccc(S(=O)(=O)N/N=C2/CCC3(O)CC2(C)CCC2[C@H]3CC2(C)C)cc1 (some centres not stated) cannot be ordered by TGI: over 100 µM for the first, over 100 µM for the second.

First: O=C1Oc2ccccc2C(=O)/C1=C/N1C(=O)CNC1=S
Second: CCCc1nc2c(n1CC)C(=O)c1ccccc1C2=O
The TGI of the first is higher: over 100 µM for the first, 78.7 µM for the second.

Cn1nnc2c3c(N(CCO)CCO)ccnc3ccc21 and CCOc1ccc(NC(=O)C(=O)Nn2c(N)nnc2N)cc1 cannot be ordered by TGI: over 100 µM for the first, over 100 µM for the second.

Cc1ccc(S(=O)(=O)N2CCSCCSCCSCCN(S(=O)(=O)c3ccc(C)cc3)CC2)cc1 and Cc1cc(NS(=O)(=O)c2ccc(N=[N+]([O-])c3ccc(S(=O)(=O)Nc4cc(C)on4)cc3)cc2)no1 cannot be ordered by TGI: over 100 µM for the first, over 100 µM for the second.

C1CCCN(NC2=NCCO2)CC1 and C=CCN1CCC(c2cc(C(=O)OCC)[nH]c2-c2cc(C)no2)C1=O (configuration not stated) cannot be ordered by TGI: over 100 µM for the first, over 100 µM for the second.

O=C1OC([C@H](O)c2cccnc2)c2ccccc21 (some centres not stated) and CC(=O)N1C(Nc2nccs2)CCN1c1ccccc1 (configuration not stated) cannot be ordered by TGI: over 10 µM for the first, over 10 µM for the second.

Compared with CC(C)(C)O/N=C/c1cc(NC(=S)c2ccsc2)ccc1Cl, NC(=O)[N+](=CC(=S)Nc1ccccc1Cl)C(N)=O is higher in TGI: 33.9 µM for the first, over 100 µM for the second.

CC(=O)/C(=C\I)c1ccccc1 and Cc1cn(C2CC(N=[N+]=[N-])C(COP(=O)(O)OCC3OC(n4cc(F)c(=O)[nH]c4=O)CC3O)O2)c(=O)[nH]c1=O (configuration not stated) cannot be ordered by TGI: 25 µM for the first, over 24.6 µM for the second.

In the case of CC(C)OP(=O)(OC(C)C)C(C)(C)O, the TGI was over 100 µM.

system: K-562 leukemia; assay: DTP human tumour cell line panel, 48 h

Going from CCCCCCCCCCCCCCCCNC(=O)/C(=C\c1ccc(Cl)c(Cl)c1)NC(=O)c1ccccc1 to CC(=O)/C(=C\I)c1ccccc1, the TGI falls from 64.3 µM to 4.61 µM (14-fold).

Compared with O=C(Nc1ccccc1)OCCN=C1c2ccccc2CCc2ccccc21, O=C1NCN(c2ccccc2)C12CCN(CC1COc3ccccc3O1)CC2 (configuration not stated) is higher in TGI: 60.9 µM for the first, over 100 µM for the second.

First: COc1cc2cc(C(=O)N3CC(CCl)c4ccc([N+](C)(C)Cc5ccccc5[N+](=O)[O-])cc43)[nH]c2c(OC)c1OC (configuration not stated)
Second: COc1cc([C@@H]2c3cc4c(cc3[C@@H](Nc3ccc(Cl)cc3C(=O)c3ccccc3)[C@H]3COC(=O)[C@H]23)OCO4)cc(OC)c1OC
The TGI of the first is lower: 12.5 µM for the first, over 100 µM for the second.

CC(C)[C@H]1NC(=O)[C@H]2N=C(S[C@H]2C)[C@@H]2CCCN2C(=O)[C@H](Cc2ccccc2)NC(=O)[C@@H]2CSC(=N2)[C@@H](Cc2ccccc2)NC(=O)[C@@H]2CSC1=N2 and Cc1nn(C(=O)c2ccncc2)c2c1C(c1ccccc1[N+](=O)[O-])SC(N)=N2 (configuration not stated) cannot be ordered by TGI: 23.9 µM for the first, over 10 µM for the second.

COC(=O)/C=C/[C@@H]1[C@H](C)N1S(=O)(=O)c1ccc(C)cc1 (some centres not stated) and Cc1ccc(S(=O)(=O)N2CCSCCSCCSCCN(S(=O)(=O)c3ccc(C)cc3)CC2)cc1 cannot be ordered by TGI: over 100 µM for the first, over 100 µM for the second.

O=C1Oc2ccccc2C(=O)/C1=C/N1C(=O)CNC1=S and CCCc1nc2c(n1CC)C(=O)c1ccccc1C2=O cannot be ordered by TGI: over 100 µM for the first, over 100 µM for the second.

Cn1nnc2c3c(N(CCO)CCO)ccnc3ccc21 and CCOc1ccc(NC(=O)C(=O)Nn2c(N)nnc2N)cc1 cannot be ordered by TGI: over 100 µM for the first, over 100 µM for the second.

C1CCCN(NC2=NCCO2)CC1 and C=CCN1CCC(c2cc(C(=O)OCC)[nH]c2-c2cc(C)no2)C1=O (configuration not stated) cannot be ordered by TGI: over 100 µM for the first, over 100 µM for the second.

Work on O=C1OC([C@H](O)c2cccnc2)c2ccccc21 (some centres not stated) yielded a TGI of over 10 µM.
